Test results taken from article PMC2386552, “Toward the Assessment of Food Toxicity for Celiac Patients: Characterization of Monoclonal Antibodies to a Main Immunogenic Gluten Peptide” (PLoS ONE, 2008).

How the values were obtained:
G12 moAb = assay: Indirect ELISA of C-LYTAG-peptide fusions (E. coli extracts) with moAb G12; type: binding; conditions: indirect ELISA of bacterial extracts containing the fusion peptides
Excerpt: (§1) To determine the epitope recognized by the G12 and A1 moAb within the 33-mer peptide, fusions of the C-LYTAG coding sequence of the pALEXb plasmid (Biomedal S.L., Sevilla, Spain) were constructed with coding sequences of hepta- and octapeptides comprising the complete sequence of the 33-mer peptide (Figure 3A). The resulting plasmids were introduced by transformation into the REG1 strain of Escherichia coli, allowing for over-expression of the encoded fusion proteins upon induction (Biomedal S.L., Sevilla, Spain). The over-expressed bacterial extracts were analyzed by indirect ELISA using the anti-33-mer A1 and G12 moAbs. Similarly, the anti-C-LYTAG 6B5L1 moAb (Biomedal, S.L., Sevilla, Spain) was used to establish that the designed protein was expressed intact in all cases. […]
(§2) A Maxisorp microtiter plate (Nunc, Roskilde, Denmark) was coated overnight at 4°C with 100 µL/well of the appropriate antigen (C-LYTAG-33-mer protein, gliadin, hordein, secalin, avenin, oryzein, zein or soluble protein extracts containing peptide fusions) serially diluted with 0.1 M of Na2CO3-NaHCO3 (pH 9.6). […] Absorbance at 450 nm was measured in the microplate reader UVM340 (Asys Hitech GmbH, Eugendorf, Austria).

A1 moAb = assay: Indirect ELISA of C-LYTAG-peptide fusions (E. coli extracts) with moAb A1; type: binding; conditions: indirect ELISA of bacterial extracts containing the fusion peptides
Excerpt: as §1, §2

Substance	signal with G12 moAb (G12 moAb)	signal with A1 moAb (A1 moAb)
PQPQLPY [Pro63-Tyr69, C-LYTAG fusion peptide PQPQLPY expressed in E. coli]	positive signal	
QLPYPQP [Gln66-Pro72, C-LYTAG fusion peptide QLPYPQP expressed in E. coli]		positive signal
QPQLPYP [Gln64-Pro70, C-LYTAG fusion peptide QPQLPYP expressed in E. coli]	positive signal	
